The results in this text go back to patent publication US20240239861A1, “GLUCAGON-RECEPTOR SELECTIVE POLYPEPTIDES AND METHODS OF USE THEREOF” (i2O Therapeutics, Inc., priority 2016, published 2024).

Where a SMILES comes first, the peptide text is derived from it. [ ]: non-standard residue; d: D form. Aib = CC(C)(N)C(=O)O

For the experiment, the target named is human GLP-1R (Homo sapiens, UniProt P43220). Put plainly: Peptide-receptor mediated cAMP accumulation (LANCE Ultra cAMP) in CHO-K1 cells transfected with human GLP-1R. The class given is cell-based. The settings on record: hGLP1 pEC50 (cAMP mean (n = 3): 11 point curve starting at 1 nM, Table 3).
Sequence of human GLP-1R (P43220 24-463): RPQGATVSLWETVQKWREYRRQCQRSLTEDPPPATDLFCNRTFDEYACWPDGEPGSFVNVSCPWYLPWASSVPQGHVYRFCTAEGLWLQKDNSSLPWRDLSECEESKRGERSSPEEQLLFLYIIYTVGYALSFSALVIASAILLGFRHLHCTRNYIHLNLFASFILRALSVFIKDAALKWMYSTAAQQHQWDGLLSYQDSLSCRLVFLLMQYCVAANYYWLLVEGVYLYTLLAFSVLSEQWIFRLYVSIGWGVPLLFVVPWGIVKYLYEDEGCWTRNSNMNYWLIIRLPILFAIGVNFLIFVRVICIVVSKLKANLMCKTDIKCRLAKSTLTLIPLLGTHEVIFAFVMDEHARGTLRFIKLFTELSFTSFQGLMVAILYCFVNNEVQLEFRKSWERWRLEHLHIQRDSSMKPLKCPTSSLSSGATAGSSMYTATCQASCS
In turn, `CC(C)C[C@H](NC(=O)[C@H](Cc1ccc(O)cc1)NC(=O)[C@H](CCCCN)NC(=O)[C@H](CO)NC(=O)[C@H](Cc1ccc(O)cc1)NC(=O)[C@H](CC(=O)O)NC(=O)[C@H](CO)NC(=O)[C@@H](NC(=O)[C@H](Cc1ccccc1)NC(=O)[C@@H](NC(=O)CNC(=O)[C@H](Cc1c[nH]cn1)NC(=O)[C@H](CO)NC(=O)[C@@H](N)Cc1ccc(O)cc1)[C@@H](C)O)[C@@H](C)O)C(=O)N[C@@H](CC(=O)O)C(=O)NC(C)(C)C(=O)N[C@@H](CCCCN)C(=O)N[C@@H](CCCNC(=N)N)C(=O)N[C@@H](C)C(=O)N[C@@H](CCC(N)=O)C(=O)N[C@@H](CCC(=O)O)C(=O)N[C@@H](Cc1ccccc1)C(=O)N[C@H](C(=O)NC(C)(C)C(=O)N[C@@H](Cc1c[nH]c2ccccc12)C(=O)N[C@@H](CC(C)C)C(=O)N[C@@H](CCC(=O)O)C(=O)N[C@@H](CCC(=O)O)C(=O)N[C@@H](CCC(=O)O)C(=O)N1CCC[C@H]1C(=O)N[C@@H](CO)C(=O)N[C@@H](CO)C(=O)NCC(=O)N[C@@H](C)C(=O)N1CCC[C@H]1C(=O)N1CCC[C@H]1C(=O)N1CCC[C@H]1C(=O)N[C@@H](CO)C(=O)O)C(C)C` [Compound A9] (H-YSHGTFTSDYSKYLD[Aib]KRAQEFV[Aib]WLEEEPSSGAPPPS-OH; N-terminus assumed) had an EC50 above 1 nM.

Regarding `CC(C)C[C@H](NC(=O)[C@H](Cc1ccc(O)cc1)NC(=O)[C@H](CCCCN)NC(=O)[C@H](CO)NC(=O)[C@H](Cc1ccc(O)cc1)NC(=O)[C@H](CC(=O)O)NC(=O)[C@H](CO)NC(=O)[C@@H](NC(=O)[C@H](Cc1ccccc1)NC(=O)[C@@H](NC(=O)CNC(=O)[C@H](Cc1c[nH]cn1)NC(=O)[C@H](CO)NC(=O)[C@@H](N)Cc1ccc(O)cc1)[C@@H](C)O)[C@@H](C)O)C(=O)N[C@@H](CC(=O)O)C(=O)NC(C)(C)C(=O)N[C@@H](CCCCN)C(=O)N[C@@H](CCCNC(=N)N)C(=O)N[C@@H](C)C(=O)N[C@@H](CCC(N)=O)C(=O)N[C@@H](CCC(=O)O)C(=O)N[C@@H](Cc1ccccc1)C(=O)N[C@H](C(=O)NC(C)(C)C(=O)N[C@@H](Cc1c[nH]c2ccccc12)C(=O)N[C@@H](CC(C)C)C(=O)N[C@@H](CCC(=O)O)C(=O)N[C@@H](CC(=O)O)C(=O)N[C@@H](CCC(=O)O)C(=O)NCC(=O)N[C@@H](C)C(=O)N1CCC[C@H]1C(=O)N1CCC[C@H]1C(=O)N1CCC[C@H]1C(=O)N[C@@H](CO)C(=O)O)C(C)C` [Compound A12] (H-YSHGTFTSDYSKYLD[Aib]KRAQEFV[Aib]WLEDEGAPPPS-OH; N-terminus assumed), the EC50 was above 1 nM.

`CC(C)C[C@H](NC(=O)[C@H](Cc1ccc(O)cc1)NC(=O)[C@H](CCCCN)NC(=O)[C@H](CO)NC(=O)[C@H](Cc1ccc(O)cc1)NC(=O)[C@H](CC(=O)O)NC(=O)[C@H](CO)NC(=O)[C@@H](NC(=O)[C@H](Cc1ccccc1)NC(=O)[C@@H](NC(=O)CNC(=O)[C@H](Cc1c[nH]cn1)NC(=O)[C@H](CO)NC(=O)[C@@H](N)Cc1ccc(O)cc1)[C@@H](C)O)[C@@H](C)O)C(=O)N[C@@H](CC(=O)O)C(=O)NC(C)(C)C(=O)N[C@@H](CCCCN)C(=O)N[C@@H](CCCNC(=N)N)C(=O)N[C@@H](C)C(=O)N[C@@H](CCC(N)=O)C(=O)N[C@@H](CCC(=O)O)C(=O)N[C@@H](Cc1ccccc1)C(=O)N[C@H](C(=O)NC(C)(C)C(=O)N[C@@H](Cc1c[nH]c2ccccc12)C(=O)N[C@@H](CC(C)C)C(=O)N[C@@H](CCC(=O)O)C(=O)N[C@@H](CC(=O)O)C(=O)N[C@@H](CCC(=O)O)C(=O)N[C@@H](CO)C(=O)NCC(=O)N[C@@H](C)C(=O)N1CCC[C@H]1C(=O)N1CCC[C@H]1C(=O)N1CCC[C@H]1C(=O)N[C@@H](CO)C(=O)O)C(C)C` [Compound A13] (H-YSHGTFTSDYSKYLD[Aib]KRAQEFV[Aib]WLEDESGAPPPS-OH; N-terminus assumed) displayed an EC50 above 1 nM.

For the compound `CC(C)C[C@H](NC(=O)[C@H](Cc1c[nH]c2ccccc12)NC(=O)[C@H](CCCCN)NC(=O)[C@H](CO)NC(=O)[C@H](Cc1ccc(O)cc1)NC(=O)[C@H](CC(=O)O)NC(=O)[C@H](CO)NC(=O)[C@@H](NC(=O)[C@H](Cc1ccccc1)NC(=O)[C@@H](NC(=O)CNC(=O)[C@H](Cc1c[nH]cn1)NC(=O)[C@H](CO)NC(=O)[C@@H](N)Cc1ccc(O)cc1)[C@@H](C)O)[C@@H](C)O)C(=O)N[C@@H](CC(=O)O)C(=O)NC(C)(C)C(=O)N[C@@H](C)C(=O)N[C@@H](CCCNC(=N)N)C(=O)N[C@@H](C)C(=O)N[C@@H](CCC(N)=O)C(=O)N[C@@H](CCC(=O)O)C(=O)N[C@@H](Cc1ccccc1)C(=O)N[C@H](C(=O)NC(C)(C)C(=O)N[C@@H](Cc1c[nH]c2ccccc12)C(=O)N[C@@H](CC(C)C)C(=O)N[C@@H](CCC(=O)O)C(=O)N[C@@H](CC(=O)O)C(=O)N[C@@H](CCC(=O)O)C(=O)N1CCC[C@H]1C(=O)N[C@@H](CO)C(=O)N[C@@H](CO)C(=O)NCC(=O)N[C@@H](C)C(=O)N1CCC[C@H]1C(=O)N1CCC[C@H]1C(=O)N1CCC[C@H]1C(=O)N[C@@H](CO)C(=O)O)C(C)C` [Compound A18] (H-YSHGTFTSDYSKWLD[Aib]ARAQEFV[Aib]WLEDEPSSGAPPPS-OH; N-terminus assumed), the EC50 was above 1 nM.

The compound `CC(C)C[C@H](NC(=O)[C@H](Cc1ccc(O)cc1)NC(=O)[C@H](CCCCN)NC(=O)[C@H](CO)NC(=O)[C@H](Cc1ccc(O)cc1)NC(=O)[C@H](CC(=O)O)NC(=O)[C@H](CO)NC(=O)[C@@H](NC(=O)[C@H](Cc1ccccc1)NC(=O)[C@@H](NC(=O)CNC(=O)[C@H](Cc1c[nH]cn1)NC(=O)[C@H](CO)NC(=O)[C@@H](N)Cc1ccc(O)cc1)[C@@H](C)O)[C@@H](C)O)C(=O)N[C@@H](CC(=O)O)C(=O)NC(C)(C)C(=O)N[C@@H](CCCCN)C(=O)N[C@@H](CCCNC(=N)N)C(=O)N[C@@H](C)C(=O)N[C@@H](CCC(N)=O)C(=O)N[C@@H](CCC(=O)O)C(=O)N[C@@H](Cc1ccccc1)C(=O)N[C@H](C(=O)NC(C)(C)C(=O)N[C@@H](Cc1c[nH]c2ccccc12)C(=O)N[C@@H](CC(C)C)C(=O)N[C@@H](CCC(=O)O)C(=O)N[C@@H](CC(=O)O)C(=O)N[C@@H](CCC(=O)O)C(=O)N1CCC[C@H]1C(=O)N[C@@H](CO)C(=O)N[C@@H](CO)C(=O)N[C@@H](CCCCN)C(=O)NCC(=O)N[C@@H](C)C(=O)N1CCC[C@H]1C(=O)N1CCC[C@H]1C(=O)N1CCC[C@H]1C(=O)N[C@@H](CO)C(=O)O)C(C)C` [Compound A24] (H-YSHGTFTSDYSKYLD[Aib]KRAQEFV[Aib]WLEDEPSSKGAPPPS-OH) came in with an EC50 above 1 nM.

In turn, `CC(C)C[C@H](NC(=O)[C@H](Cc1ccc(O)cc1)NC(=O)[C@H](CCCCN)NC(=O)[C@H](CO)NC(=O)[C@H](Cc1ccc(O)cc1)NC(=O)[C@H](CC(=O)O)NC(=O)[C@H](CO)NC(=O)[C@@H](NC(=O)[C@H](Cc1ccccc1)NC(=O)[C@@H](NC(=O)CNC(=O)[C@H](Cc1c[nH]cn1)NC(=O)[C@H](CO)NC(=O)[C@@H](N)Cc1ccc(O)cc1)[C@@H](C)O)[C@@H](C)O)C(=O)N[C@@H](CC(=O)O)C(=O)NC(C)(C)C(=O)N[C@@H](CCCCN)C(=O)N[C@@H](CCCNC(=N)N)C(=O)N[C@@H](C)C(=O)N[C@@H](CCC(N)=O)C(=O)N[C@@H](CCC(=O)O)C(=O)N[C@@H](Cc1ccccc1)C(=O)N[C@H](C(=O)NC(C)(C)C(=O)N[C@@H](Cc1c[nH]c2ccccc12)C(=O)N[C@@H](CC(C)C)C(=O)N[C@@H](CCC(=O)O)C(=O)N[C@@H](CC(=O)O)C(=O)N[C@@H](CCC(=O)O)C(=O)NCC(=O)NCC(=O)N1CCC[C@H]1C(=O)N[C@@H](CO)C(=O)N[C@@H](CO)C(=O)NCC(=O)N[C@@H](C)C(=O)N1CCC[C@H]1C(=O)N1CCC[C@H]1C(=O)N1CCC[C@H]1C(=O)N[C@@H](CO)C(=O)O)C(C)C` [Compound A27] (H-YSHGTFTSDYSKYLD[Aib]KRAQEFV[Aib]WLEDEGGPSSGAPPPS-OH; N-terminus assumed) had an EC50 above 1 nM.

As for `CC(C)C[C@H](NC(=O)[C@H](Cc1c[nH]c2ccccc12)NC(=O)[C@H](CCCCN)NC(=O)[C@H](CO)NC(=O)[C@H](Cc1ccc(O)cc1)NC(=O)[C@H](CC(=O)O)NC(=O)[C@H](CO)NC(=O)[C@@H](NC(=O)[C@H](Cc1ccccc1)NC(=O)[C@@H](NC(=O)CNC(=O)[C@H](Cc1c[nH]cn1)NC(=O)[C@@H](NC(=O)[C@@H](N)Cc1ccc(O)cc1)[C@@H](C)O)[C@@H](C)O)[C@@H](C)O)C(=O)N[C@@H](CC(=O)O)C(=O)NC(C)(C)C(=O)N[C@@H](CCCCN)C(=O)N[C@@H](CCCNC(=N)N)C(=O)N[C@@H](C)C(=O)N[C@@H](CCC(N)=O)C(=O)N[C@@H](CCC(=O)O)C(=O)N[C@@H](Cc1ccccc1)C(=O)N[C@H](C(=O)NC(C)(C)C(=O)N[C@@H](Cc1c[nH]c2ccccc12)C(=O)N[C@@H](CC(C)C)C(=O)N[C@@H](CCC(=O)O)C(=O)N[C@@H](CC(=O)O)C(=O)N[C@@H](CCC(=O)O)C(=O)N1CCC[C@H]1C(=O)N[C@@H](CO)C(=O)N[C@@H](CO)C(=O)NCC(=O)N[C@@H](C)C(=O)N1CCC[C@H]1C(=O)N1CCC[C@H]1C(=O)N1CCC[C@H]1C(=O)N[C@@H](CO)C(=O)O)C(C)C` [Compound A32] (H-YTHGTFTSDYSKWLD[Aib]KRAQEFV[Aib]WLEDEPSSGAPPPS-OH; N-terminus assumed), the EC50 was above 1 nM.

In turn, `CC(C)C[C@H](NC(=O)[C@H](Cc1ccc(O)cc1)NC(=O)[C@H](CCCCN)NC(=O)[C@H](CO)NC(=O)[C@H](Cc1ccc(O)cc1)NC(=O)[C@H](CC(=O)O)NC(=O)[C@H](CO)NC(=O)[C@@H](NC(=O)[C@H](Cc1ccccc1)NC(=O)[C@@H](NC(=O)CNC(=O)[C@H](Cc1c[nH]cn1)NC(=O)[C@H](CO)NC(=O)[C@@H](N)Cc1ccc(O)cc1)[C@@H](C)O)[C@@H](C)O)C(=O)N[C@@H](CC(=O)O)C(=O)N[C@@H](CO)C(=O)N[C@@H](C)C(=O)N[C@@H](CCCNC(=N)N)C(=O)N[C@@H](C)C(=O)N[C@@H](CCC(N)=O)C(=O)N[C@@H](CCC(=O)O)C(=O)N[C@@H](Cc1ccccc1)C(=O)N[C@H](C(=O)N[C@@H](CCCCN)C(=O)N[C@@H](Cc1c[nH]c2ccccc12)C(=O)N[C@@H](CC(C)C)C(=O)N[C@@H](CCC(=O)O)C(=O)N[C@@H](CC(=O)O)C(=O)N[C@@H](CCC(=O)O)C(=O)N1CCC[C@H]1C(=O)N[C@@H](CO)C(=O)N[C@@H](CO)C(=O)NCC(=O)N[C@@H](C)C(=O)N1CCC[C@H]1C(=O)N1CCC[C@H]1C(=O)N1CCC[C@H]1C(=O)N[C@@H](CO)C(=O)O)C(C)C` [Compound A37] (H-YSHGTFTSDYSKYLDSARAQEFVKWLEDEPSSGAPPPS-OH; N-terminus assumed) gave an EC50 above 1 nM.

The term EC50 denotes the concentration needed to bring the measured effect to its halfway point. Low readings indicate an effect from little substance, high ones a need for much substance.
